In patent US10905665B2, “Chemical modulators of signaling pathways and therapeutic use” (Duke University, priority 2015, dated 2021):
Where two headings read alike, the source gives them in different places.

What was measured:
Frizzled1-GFP = biological target: T1, Frizzled1-GFP (Homo sapiens, UniProt Q9UP38); assay: Frizzled internalization assay (Fzd1-GFP); assay type: cell-based; set-up: key: Punctate similar to control=0; trace amount of punctate greater than control=1; moderate=3; strong=5; settings: 6 hours, 0-5 point scale
T1 construct: expressed in transfected cells
T1 sequence (Q9UP38 70-647): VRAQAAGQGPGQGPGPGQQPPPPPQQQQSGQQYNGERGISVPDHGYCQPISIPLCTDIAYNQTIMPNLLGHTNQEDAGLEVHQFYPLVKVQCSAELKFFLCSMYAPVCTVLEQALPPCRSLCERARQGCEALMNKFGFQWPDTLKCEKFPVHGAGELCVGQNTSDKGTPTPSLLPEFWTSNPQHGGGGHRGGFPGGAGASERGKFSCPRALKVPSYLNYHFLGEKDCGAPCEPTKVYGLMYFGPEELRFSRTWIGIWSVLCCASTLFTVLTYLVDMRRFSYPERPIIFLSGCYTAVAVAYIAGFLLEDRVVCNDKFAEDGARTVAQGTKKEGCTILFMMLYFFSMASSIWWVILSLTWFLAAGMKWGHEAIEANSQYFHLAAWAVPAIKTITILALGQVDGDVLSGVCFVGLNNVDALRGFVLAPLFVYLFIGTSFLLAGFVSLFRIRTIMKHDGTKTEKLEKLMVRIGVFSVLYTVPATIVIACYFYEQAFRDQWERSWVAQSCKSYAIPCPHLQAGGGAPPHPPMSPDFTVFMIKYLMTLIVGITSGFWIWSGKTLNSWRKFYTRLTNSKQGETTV
Description: The Fzd1-GFP assay was performed following a procedure similar to previously published work (Chen, M. Y.; Wang, J. B.; Lu, J. Y.; Bond, M. C.; Ren, X. R.; Lyerly, H. K.; Barak, L. S.; Chen, W. Biochemistry 2009, 48, 10267). Cells stably expressing Frizzled1-GFP plated in confocal dishes were treated, after 24 hours, with 12.5 μM of test compound or DMSO for 6 hours at 37° C. followed by fixation with 4% paraformaldehyde. The cells were then examined by microscopy using a LSM 510-Meta confocal microscope (Carl Zeiss, Thornwood, N.Y., USA) equipped with 40× and 100× apo chromat objectives. YFP was excited using a 488-nm argon laser line. Images were processed using the LSM software Image Browser (CarlZeiss, Thornwood, N.Y., USA). Plates were read twice in blinded fashion using a 0-5 point scale. ^aPunctate similar to control=0, trace amount of punctate greater than control=1, moderate=3, strong=5.

[1] = system: Wnt/β-catenin transcription; assay: Wnt-3A-stimulated TOPFlash reporter assay in HEK293 cells; assay type: cell-based; settings: Homo sapiens, Wnt-3A conditioned medium, 8 hour treatment, read-out: Inhibition Wnt/β-catenin transcription TopFlash IC50
Description: Stably transfected cells were seeded in 100 μl of cell growth medium/well in 96-well plates at 100% confluency. Fifty microliters of Wnt-3A conditioned medium containing the chemical compounds to be tested or DMSO was added to each well. After an 8 hour treatment, the cells were washed once with PBS and lysed with 55 μl of Passive Lysis Buffer supplied in the Dual-Luciferase Reporter Assay kit (Promega, Madison, Wis.). Twenty-five microliters of cell lysate was used for measuring luciferase activity in a 96-well plate reader (FluoStar Optima, BMG Labtech, Chicago, Ill.). Data were fit using GraphPad Prism (mean±SEM, n>=2).

β-catenin = assay: Western blot of cytosolic β-catenin in HCT-116 cells; assay type: cell-based; settings: Homo sapiens, 2.0 μM compound, read-out: Remaining cytosolic β-catenin
Description: Western blots were performed following a procedure similar to previously published work (Osada, T.; Chen, M. Y.; Yang, X. Y.; Spasojevic, I.; Vandeusen, J. B.; Hsu, D.; Clary, B. M.; Clay, T. M.; Chen, W.; Morse, M. A.; Lyerly, H. K. Cancer Research 2011, 71, 4172). HCT-116 cells were grown to about 80% confluency in poly-D-lysine coated six-well plates 48 hours before treatment and followed by 2.0 μM compounds or DMSO incubation for 18 hours in growth medium. After treatment, the cytosolic fraction was isolated as described (Osada, T.; Chen, M. Y.; Yang, X. Y.; Spasojevic, I.; Vandeusen, J. B.; Hsu, D.; Clary, B. M.; Clay, T. M.; Chen, W.; Morse, M. A.; Lyerly, H. K. Cancer Research 2011, 71, 4172). Immunoblots using antibodies to […] (E-5, Santa Cruz Biotechnology catalog number sc-7963) was used to detect β-catenin protein levels in the cytosol, and immunoblots using antibodies to β-actin (C-4, Santa Cruz Biotechnology, catalog number SC-47778) was used for loading controls.
Inhibition of Wnt signaling was determined by analyzing the reduction of cytosolic β-catenin by Western blot (FIG. 1, 2).

[2] = system: colon cancer cell line HCT116; assay: Cell proliferation assay (MTS); assay type: cell-based; settings: for IC50: Homo sapiens, HCT-116, HCT116, 72 hours, 0.04 to 10 μM, read-out: Anti-proliferation IC50 (μM), MTS assay
Description: The colon cancer cell line HCT116 was used in the cell proliferation assay. The cells were plated in 100 μl of growing medium/well in 96-well plates at 5,000 cells per well and treated with compounds from 0.04 to 10 μM for 72 hours, after which point the cells were analyzed by colorimetric MTS assay (Promega, Madison, Wis., USA). Data were fit using GraphPad Prism (mean±SEM, n 3).

[3] = niclosamide dosed orally as a solution at 200 mg/kg, reported (Osada 2011); cited from earlier work
[4] = Pharmacokinetic studies, niclosamide in mouse plasma; assay type: in vivo, CD1 mice; settings: mice
Description: For niclosamide dosed IV, niclosamide was dissolved in a solvent of 67% polyethylene glycol 400 and 33% N,N-dimethylacetamide at a concentration of 3.27 mg/mL and tail vein injected at a dose of 2.6 mg/kg of body weight. Blood samples were obtained at predose and at 0.08, 0.17, 0.33, 0.67, 1.5, 4, 8, 12 hours after drug administration. For oral dosing of compound 74, compound 74 was dissolved in a solvent of 90% polyethylene glycol 300 and 10% 1-methyl-2-pyrrolidinone at a concentration of 20 mg/mL and gavaged at a dose of 200 mg/kg of body weight. Blood samples were obtained at predose and at 0.25, 0.5, 1, 2, 4, 8 hours after drug administration. For oral dosing of compound 61, compound 61 was dissolved in corn oil at a concentration of 20 mg/mL and dosed at 200 mg/kg of body weight. Blood samples were obtained at predose and at 0.25, 0.5, 0.75, 1, 1.5, 4, 8, 12, 24, 48, and 72 hours after drug administration. All the solvent reagents were purchased from Sigma-Aldrich (St. Louis, Mo., USA). CD1 mice were used in the pharmacokinetic studies. Quantification of niclosamide in mouse plasma was done by LC/MS-MS using methods similar to those previously published (Osada, T.; Chen, M. Y.; Yang, X. Y.; Spasojevic, I.; Vandeusen, J. B.; Hsu, D.; Clary, B. M.; Clay, T. M.; Chen, W.; Morse, M. A.; Lyerly, H. K. Cancer Research 2011, 71, 4172.).

[5] = system: High Fat Diet (HFD)-Induced Hepatic Steatosis; assay: Reduction of high fat diet (HFD)-induced hepatic steatosis; assay type: in vivo, C57BL/6J mice; settings: 200 mg/kg oral gavage, three months
Description: Five week old male C57BL/6J mice were fed with chow or high fat diet for two months, followed by same diet and oral gavage of vehicle (corn oil) or compound 61 at 200 mg/kg for three months (daily for 6 days a week from Monday to Saturday). Liver tissue samples were collected after the three month treatment. Pictures shown in FIG. 9 are representative liver sections stained with H&E. A. Chow mice with vehicle; B. Chow mice with compound 61; C. HFD mice with vehicle; D. HFD mice with compound 61. […] The white fat deposits look similar in both panel A and B. However, when mice were fed a high fat diet (panel C), a large amount of white fatty deposits can be seen along with a large amount of dysplastic liver tissue.

Row | Compound | Fzd1-GFP internalization @12.5 μM (Frizzled1-GFP) | IC50 ([1]; HEK293, 8 h) [nM] | IC50 [2] [µM] | Pharmacokinetic properties after oral administration, in words [4] | Effect on the liver (H&E sections), chow diet ([5]; normal chow diet) | activity at 2 µM (β-catenin; HCT-116, 18 h) [%] | Time plasma levels of niclosamide were above the TOPFlash IC50 [3] | Anti-proliferation activity, MTS assay, in words ([2]; HCT116, up to 10 μM) | Plasma exposure of niclosamide compared to 200 mg/kg niclosamide dosed orally, in words ([4]; compound 61 in corn oil, 200 mg/kg oral) | Liver fat deposits and tissue architecture (H&E sections), high fat diet ([5]; high fat diet) | IC50 ([1]; HEK293) [nM] | activity at 2 µM (β-catenin; 18 hours) [%]
1 | O=C(Nc1ccc([N+](=O)[O-])cc1Cl)c1cc(Cl)ccc1O [A, 5-chloro-N-(2-chloro-4-nitrophenyl)-2-hydroxybenzamide, reference compound] | 5 | 340 ± 80 | 0.45 ± 0.05 | – | – | 8 | less than 1 hour | – | – | – | – | –
2 | CCCCCCCC(=O)Oc1ccc(Cl)cc1C(=O)Nc1ccc([N+](=O)[O-])cc1Cl [Compound 61, 4-Chloro-2-((2-chloro-4-nitrophenyl)carbamoyl)phenyl octanoate] | 5 | 230 ± 60 | 0.61 ± 0.11 | – | minimal to no effect | 8 | – | – | significantly increased plasma exposure of niclosamide | limited white fatty deposits without the dysplastic tissue architecture | – | –
3 | CCOC(=O)Oc1ccc(Cl)cc1C(=O)Nc1ccc(C(F)(F)F)cc1Cl [Compound 70, 4-Chloro-2-((2-chloro-4-(trifluoromethyl)phenyl)carbamoyl)phenyl ethyl carbonate] | 5 | – | 0.51 ± 0.06 | – | – | – | – | – | – | – | 340 ± 120 | 8
4 | O=c1oc2ccc(Cl)cc2c(=O)n1-c1ccc(C(F)(F)F)cc1Cl [Compound 73, 6-Chloro-3-(2-chloro-4-(trifluoromethyl)phenyl)-2H-benzo[e][1,3]oxazine-2,4(3H)-dione] | 5 | 330 ± 100 | 0.55 ± 0.07 | – | – | 9 | – | – | – | – | – | –

Second part, led by results:

Row | Fzd1-GFP internalization @12.5 μM (Frizzled1-GFP) | IC50 ([1]; HEK293, 8 h) [nM] | IC50 [2] [µM] | Pharmacokinetic properties after oral administration, in words [4] | Effect on the liver (H&E sections), chow diet ([5]; normal chow diet) | Compound | activity at 2 µM (β-catenin; HCT-116, 18 h) [%] | Time plasma levels of niclosamide were above the TOPFlash IC50 [3] | Anti-proliferation activity, MTS assay, in words ([2]; HCT116, up to 10 μM) | Plasma exposure of niclosamide compared to 200 mg/kg niclosamide dosed orally, in words ([4]; compound 61 in corn oil, 200 mg/kg oral) | Liver fat deposits and tissue architecture (H&E sections), high fat diet ([5]; high fat diet) | IC50 ([1]; HEK293) [nM] | activity at 2 µM (β-catenin; 18 hours) [%]
5 | 5 | 560 ± 210 | 0.54 ± 0.08 | poor pharmacokinetic properties | – | O=C(Nc1ccc(C(F)(F)F)cc1Cl)c1cc(Cl)ccc1O [Compound 7, 5-chloro-N-(2-chloro-4-(trifluoromethyl)phenyl)-2-hydroxybenzamide] | 6 | – | – | – | – | – | –
6 | 5 | 420 ± 100 | 1.18 ± 0.14 | – | – | O=C(Nc1ccc(Cl)cc1Cl)c1cc(Cl)ccc1O [Compound 14, 5-chloro-N-(2,4-dichlorophenyl)-2-hydroxybenzamide] | 7 | – | – | – | – | – | –
7 | 0 | > 12000 | > 10 | – | – | O=C(Nc1c(Cl)cccc1Cl)c1cc(Cl)ccc1O [Compound 18, 5-chloro-N-(2,6-dichlorophenyl)-2-hydroxybenzamide] | 100 | – | no effect | – | – | – | –
8 | 0 | > 12000 | > 10 | – | – | CN(C(=O)c1cc(Cl)ccc1O)c1ccc(C(F)(F)F)cc1 [Compound 24, 5-chloro-2-hydroxy-N-methyl-N-(4-(trifluoromethyl)phenyl)benzamide] | 96 | – | – | – | – | – | –
9 | – | 320 ± 30 | – | poor pharmacokinetic properties | – | O=c1oc2ccc(Cl)cc2c(=O)n1-c1ccc(C(F)(F)F)cc1 [Compound 74, 6-chloro-3-(4-(trifluoromethyl)phenyl)-2H-benzo[e][1,3]oxazine-2,4(3H)-dione] | – | – | – | – | – | – | –
